Measurements taken from PubChem BioAssay (NCI).
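These data come from cells grown in 96-well plates and exposed to compound for 48 hours at five concentrations. TGI: total growth inhibition.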 Where a SMILES comes first, the peptide text is derived from it. [ ]: non-standard residue; d: D form. The star is where a group is joined. Cbz = O=C(OCc1ccccc1)*; Boc = CC(C)(C)OC(=O)*; Aib = CC(C)(N)C(=O)O; OBn = c1ccc(CO*)cc1; OtBu = CC(C)(C)O*; βAla = NCCC(=O)O

What was measured:
Assay in all cases: inhibition of tumour cell growth, NCI panel, 48 h
A549 NSCLC = tested on: A549 NSCLC
DU-145 prostate = tested on: DU-145 prostate
HOP-92 NSCLC = tested on: HOP-92 NSCLC
HS 578T breast = tested on: HS 578T breast
LOX IMVI melanoma = tested on: LOX IMVI melanoma
M14 melanoma = tested on: M14 melanoma
MCF7 breast = tested on: MCF7 breast
MOLT-4 leukemia = tested on: MOLT-4 leukemia
OVCAR-3 ovarian = tested on: OVCAR-3 ovarian
RXF 393 renal = tested on: RXF 393 renal

Row | Structure (SMILES) | TGI (A549 NSCLC) | TGI (DU-145 prostate) | TGI (HOP-92 NSCLC) | TGI (HS 578T breast) | TGI (LOX IMVI melanoma) | TGI (M14 melanoma) | TGI (MCF7 breast) | TGI (MOLT-4 leukemia) | TGI (OVCAR-3 ovarian) | TGI (RXF 393 renal)
1 | Cc1cc(S(=O)(=O)Nc2nnc3cc(C(F)(F)F)cc(C)n23)c(S)cc1Cl | 52.8 µM | > 100 µM | > 100 µM | > 100 µM | > 100 µM | > 100 µM | > 31.6 µM | > 100 µM | > 100 µM | > 100 µM
2 | O=C(NCCNCCO)N/N=C/c1ccc(Cl)cc1 | > 100 µM | > 100 µM | – | > 100 µM | – | > 100 µM | > 100 µM | > 100 µM | > 100 µM | –
3 | CSc1ncc2c(n1)-c1ccccc1OC2N1CCCC1 (stereo unspecified) | > 100 µM | > 100 µM | > 100 µM | > 100 µM | > 100 µM | > 100 µM | > 100 µM | > 100 µM | > 100 µM | > 100 µM
4 | O=C1[C@@H]2Cc3c([nH]c4ccccc34)C(C3CCCCC3)N2C(=O)[C@@H]2CCCN12 (stereo partly specified) | > 100 µM | > 100 µM | 76.6 µM | 68.7 µM | 73.9 µM | > 100 µM | > 100 µM | 57 µM | 51.7 µM | > 100 µM
5 | CSc1nncc(-c2cc3c(c(SC)n2)CCC3)n1 | > 100 µM | > 100 µM | – | – | – | > 100 µM | – | – | > 100 µM | > 100 µM
6 | O=C(O)c1ccccc1/C=N\NC1=NCCCCN1 | > 100 µM | > 100 µM | – | > 100 µM | > 100 µM | > 100 µM | > 100 µM | > 100 µM | > 100 µM | –
7 | COc1ccc(OC)c2cc(Cc3ccc(N(C)C)cc3)c(=O)c(Cc3ccc(N(C)C)cc3)cc12 | > 100 µM | > 100 µM | > 100 µM | 87.7 µM | – | > 100 µM | > 100 µM | > 100 µM | > 100 µM | > 100 µM
8 | COC(=O)[C@@H]1N2C(=S)N(c3ccccc3)C(=O)[C@H]2SC1(C)C | > 100 µM | > 100 µM | 69.2 µM | – | – | > 100 µM | > 100 µM | > 100 µM | > 100 µM | > 100 µM
9 | Cc1ccc(S(=O)(=O)N2CCN(CCN(C)CCN3CCN(S(=O)(=O)c4ccc(C)cc4)CC3)CC2)cc1 | 76.1 µM | 68.5 µM | 35.6 µM | 42.2 µM | 33 µM | 31.2 µM | 32.8 µM | 36 µM | 31.1 µM | 27.8 µM
10 | OCCN=C1Nc2ccc(Cl)cc2C(=S)N2CSC[C@@H]12 | > 100 µM | > 100 µM | > 100 µM | – | – | > 100 µM | > 100 µM | > 100 µM | > 100 µM | > 100 µM
11 | CCN(CC)CCCNc1ccc2nnn3c4ccc(O)cc4c(=O)c1c23 | 10.3 µM | 24.1 µM | 43.8 µM | 31 µM | 13.1 µM | 23.6 µM | 34 µM | 18.5 µM | 25.2 µM | 15 µM
12 | O=C1OS2(OCc3cccc4cccc2c34)c2ccccc21 (stereo unspecified) | > 100 µM | > 100 µM | > 100 µM | – | > 100 µM | > 100 µM | > 100 µM | > 100 µM | > 100 µM | –
13 | CC(C)(C)OC(=O)CC(NC(=O)OC(C)(C)C)C(=O)NC(CCCCNC(=O)OCc1ccccc1)C(=O)NC(C)(C)C(=O)NCCC(=O)OCc1ccccc1 (stereo unspecified) (Boc-D(OtBu)K(Cbz)[Aib][βAla]-OBn; configuration not given here) | > 100 µM | > 100 µM | > 100 µM | > 100 µM | > 100 µM | > 100 µM | > 100 µM | > 100 µM | > 100 µM | > 100 µM
14 | COC(=O)C(C)Sc1nc2cc(Cl)ccc2s1 (stereo unspecified) | > 100 µM | > 100 µM | > 100 µM | > 100 µM | – | > 100 µM | > 100 µM | > 100 µM | > 100 µM | > 100 µM
15 | C=C1C[C@]23C[C@@]1(O)CC[C@H]2[C@@]12C=C[C@H](O)[C@@](C)(C(=O)O1)[C@H]2[C@@H]3C(=O)O | > 100 µM | – | > 100 µM | – | > 100 µM | > 100 µM | – | > 100 µM | > 100 µM | > 100 µM
16 | O=C(N=Nc1ccccc1Br)NNc1ccccc1Br | > 100 µM | > 100 µM | – | – | > 100 µM | > 100 µM | – | > 100 µM | > 100 µM | –
17 | O=C(NCCO)c1ccc(Cl)cc1 | > 100 µM | > 100 µM | > 100 µM | > 100 µM | > 100 µM | > 100 µM | – | > 100 µM | > 100 µM | > 100 µM
18 | O=C(NNC(=S)Nc1ccccc1)c1csc(NC(=S)NC2CCCCC2)n1 | > 100 µM | > 100 µM | > 100 µM | – | 69.5 µM | > 100 µM | > 100 µM | > 100 µM | > 100 µM | –
19 | O=C1NC(N/N=C\c2ccccc2)=N/C1=C/c1ccc(Cl)cc1 | 62.9 µM | > 100 µM | – | 51.4 µM | 67.9 µM | > 100 µM | 57.4 µM | 33.9 µM | 39.7 µM | 47.3 µM
20 | COC(=O)c1cncc2c1CC1C3(C(=O)OC)C=NC(C4C(CO)=CCC43)C21C (stereo unspecified) | > 100 µM | > 100 µM | > 100 µM | > 100 µM | > 100 µM | > 100 µM | > 100 µM | > 100 µM | – | > 100 µM
21 | NC(CCCCNC(=O)OCc1ccccc1)C(=O)NC(CCCCNC(=O)OCc1ccccc1)C(=O)ON1C(=O)CCC1=O (stereo unspecified) | > 100 µM | – | > 100 µM | > 100 µM | – | > 100 µM | > 100 µM | > 100 µM | – | > 100 µM
22 | OC1OC(c2ccco2)C(F)(F)C(F)(F)C1(F)F (stereo unspecified) | > 100 µM | > 100 µM | > 100 µM | 76.2 µM | > 100 µM | > 100 µM | > 100 µM | – | > 100 µM | > 100 µM
23 | CN1C2CC(=O)CC1[C@@H]1OC(c3ccccc3)O[C@H]21 (stereo partly specified) | > 100 µM | > 100 µM | – | > 100 µM | > 100 µM | > 100 µM | > 100 µM | > 100 µM | > 100 µM | > 100 µM
24 | CCOC(=O)C(C(=O)Cc1ccccc1)c1ccccc1 (stereo unspecified) | > 100 µM | – | > 100 µM | – | > 100 µM | > 100 µM | – | > 100 µM | > 100 µM | –
